Results from US20170348306A1, “METHODS OF TREATING CANCER” (GLAXOSMITHKLINE LLC, priority 2011, published 2017).

Assays:
Assay in all cases: Cell proliferation assay (6 days, CellTiter-Glo)
Format in all cases: cell-based
[1] = test system: BC-2; details: Homo sapiens, 144 h, AIDS-BCBL, EZH2 WT, read-out: AVERAGE GROWTH IC50
Description: (§1) Thus, Example 22 and Table 6 better reflect the inhibition of HZH2 inhibitors on cell lines, e.g. the lymphoma cell lines. DLBCL cell lines were the most sensitive to EZH2 inhibition (FIG. 11a). […] Evaluation of GSK126 in additional lymphoma cell lines and extensive genomic and epigenomic characterization will be required to fully elucidate the determinants of sensitivity among lymphoma subtypes.
(§2) Biochemical assays utilized the 5-member PRC2 complex (human Flag-EZH2, EED, SUZ12, AEBP2, RbAp48) containing either WT or mutant EZH2, [^3H-]SAM and the indicated peptide substrate; reactions were incubated for 30 minutes. Global histone modification levels were determined by ELISA or western blot methods using antibodies specific for total histone H3, H3K27me1, H3K27me2, or H3K27me3. Cell proliferation and Caspase-3/7 activity were assessed using CellTiter-Glo and Caspase-Glo 3/7 (Promega), respectively. Gene expression profiling was conducted using Affymetrix Human Genome U133 Plus 2.0 microarrays. Differentially-expressed probe sets were determined by fitting the data to a linear model using the limma statistical package (http://www.bioconductor.org) and carrying out pair-wise contrasts of treated versus control. Significant probe sets were filtered for detection (log2 signal threshold of 8), an average fold-change >2 or <−2, or >1.5 or <−1.5, where indicated, with p-values adjusted for multiple testing correction by FDR (Benjamini Hochberg)<0.1. H3K27me3 ChIP reads were aligned using Bowtie (56). H3K27me3 enrichment peaks were identified using SICER (57) with optimized parameters. A custom PERL script was utilized to quantify the average basal H3K27me3 ChIP-seq tag density across gene sets. All in vivo studies were conducted after review by the Institutional Animal Care and Use Committee at GSK and in accordance with the GSK Policy on the Care, Welfare and Treatment of Laboratory Animals. GSK126 and vehicle were administered to mice intraperitoneally. Two-tailed t-tests were conducted assuming two samples of equal variance.
(§3) The optimal cell seeding was determined empirically for all cell lines by examining the growth of a wide range of seeding densities in a 384-well format to identify conditions that permitted proliferation for 6 days. […] Plates were incubated for 6 days at 37° C. in 5% CO2. Cells were then lysed with CellTiter-Glo (Promega) and chemiluminescent signal was detected with a TECAN Safire2 microplate reader. In addition, an untreated plate of cells was harvested at the time of compound addition (T0) to quantify the starting number of cells. CTG values obtained after the 6 day treatment were expressed as a percent of the T0 value and plotted against compound concentration.

[2] = test system: CA46; details: Homo sapiens, 144 h, BURKITT, EZH2 D185H (HET), read-out: AVERAGE GROWTH IC50
Description: as §1, §2, §3

[3] = test system: CI-1; details: Homo sapiens, 144 h, B-NHL, EZH2 D185H (HET), read-out: AVERAGE GROWTH IC50
Description: as §1, §2, §3

[4] = test system: DG-75; details: Homo sapiens, 144 h, BURKITT, EZH2 WT, read-out: AVERAGE GROWTH IC50
Description: as §1, §2, §3

[5] = test system: Daudi; details: Homo sapiens, 144 h, BURKITT, EZH2 WT, read-out: AVERAGE GROWTH IC50
Description: as §1, §2, §3

[6] = test system: Farage; details: Homo sapiens, 144 h, DLBCL, EZH2 D185H (HET), read-out: AVERAGE GROWTH IC50
Description: as §1, §2, §3

[7] = test system: Hs 445; details: Homo sapiens, 144 h, HODGKIN'S, EZH2 WT, read-out: AVERAGE GROWTH IC50
Description: as §1, §2, §3

[8] = test system: L-428; details: Homo sapiens, 144 h, HODGKIN'S, EZH2 Y641S (HET), read-out: AVERAGE GROWTH IC50
Description: as §1, §2, §3

[9] = test system: MC116; details: Homo sapiens, 144 h, B-NHL, EZH2 WT, read-out: AVERAGE GROWTH IC50
Description: as §1, §2, §3

[10] = test system: MHH-PREB-1; details: Homo sapiens, 144 h, B-NHL, EZH2 WT, read-out: AVERAGE GROWTH IC50
Description: as §1, §2, §3

[11] = test system: MINO; details: Homo sapiens, 144 h, B-NHL, EZH2 D185H (HET), read-out: AVERAGE GROWTH IC50
Description: as §1, §2, §3

[12] = test system: OCI-LY-19; details: Homo sapiens, OCI-LY19, 144 h, DLBCL, EZH2 WT, read-out: AVERAGE GROWTH IC50
Description: as §1, §2, §3

[13] = test system: RI-1; details: Homo sapiens, 144 h, MCL, EZH2 WT, read-out: AVERAGE GROWTH IC50
Description: as §1, §2, §3

[14] = test system: RPMI-6666; details: Homo sapiens, 144 h, HODGKIN'S, EZH2 WT, read-out: AVERAGE GROWTH IC50
Description: as §1, §2, §3

[15] = test system: Raji; details: Homo sapiens, 144 h, BURKITT, EZH2 WT, read-out: AVERAGE GROWTH IC50
Description: as §1, §2, §3

[16] = test system: SC-1; details: Homo sapiens, 144 h, FL, EZH2 D185H (HET), read-out: AVERAGE GROWTH IC50
Description: as §1, §2, §3

[17] = test system: SU-DHL-16; details: Homo sapiens, 144 h, B-NHL, EZH2 D185H (HET), read-out: AVERAGE GROWTH IC50
Description: as §1, §2, §3

[18] = test system: SU-DHL-4; details: Homo sapiens, 144 h, DLBCL, EZH2 Y641S (HET), Y661N (HET), read-out: AVERAGE GROWTH IC50
Description: as §1, §2, §3

[19] = test system: SU-DHL-6; details: Homo sapiens, 144 h, DLBCL, EZH2 Y641N (HET), read-out: AVERAGE GROWTH IC50
Description: as §1, §2, §3

[20] = test system: SU-DHL-8; details: Homo sapiens, 144 h, DLBCL, EZH2 WT, read-out: AVERAGE GROWTH IC50
Description: as §1, §2, §3

[21] = test system: U-698-M; details: Homo sapiens, 144 h, B-NHL, EZH2 WT, read-out: AVERAGE GROWTH IC50
Description: as §1, §2, §3

[22] = test system: WILL-2; details: Homo sapiens, 144 h, DLBCL, EZH2 WT, read-out: AVERAGE GROWTH IC50
Description: as §1, §2, §3

Which results are given for CC[C@H](C)n1cc(C)c2c(C(=O)NCc3c(C)cc(C)[nH]c3=O)cc(-c3ccc(N4CCNCC4)nc3)cc21 [GSK126]?
IC50 [1]: 4.76 µM; IC50 [2]: 6.58 µM; IC50 [3]: 4.28 µM; IC50 [4]: 3.25 µM; IC50 [5]: 1.27 µM; IC50 [6]: 1.72 µM; IC50 [7]: 3.53 µM; IC50 [8]: 4.7 µM; IC50 [9]: 10.2 µM; IC50 [10]: 5.3 µM; IC50 [11]: 7.34 µM; IC50 [12]: 1.02 µM; IC50 [13]: 7.66 µM; IC50 [14]: 1.43 µM; IC50 [15]: 7.87 µM; IC50 [16]: 3.73 µM; IC50 [17]: 3.28 µM; IC50 [18]: 4.83 µM; IC50 [19]: 0.582 µM; IC50 [20]: 3.19 µM; IC50 [21]: 5.6 µM; IC50 [22]: 27.5 µM
